# In patent publication EP2197883B1, “Catecholamine derivative useful for the treatment of parkinson's disease” (H. Lundbeck A/S, priority 2007, dated 2009):
# Assays:
# [1] = man, after oral dosing; cited from earlier work
# [2] = test system: PD patients; details: intravenous (IV); cited from earlier work
# [3] = test system: mouse model of severe dopamine depletion; experiment: Superiority model; assay type: in vivo; details: mice
# Description: Both Apomorphine and L-DOPA stimulate D1 and D2-like dopamine receptors.
SMILES,oral bioavailability [1] [%],antiparkinson efficacy [2],reversal of motility deficits / restoration of locomotion [3]
CCCc1cc2c(s1)CN[C@@H]1CCc3cc(OC(C)=O)c(OC(C)=O)cc3[C@@H]21 [Adrogolide],~4,comparable to that of L-DOPA,–
"N[C@@H](Cc1ccc(O)c(O)c1)C(=O)O [L-DOPA, (levo)-3,4-dihydroxy phenylalanine]",–,–,able to reverse motility deficits
CN1CCc2cccc3c2[C@H]1Cc1ccc(O)c(O)c1-3 [Apomorphine],–,–,able to reverse motility deficits
